Reference: patent US9248119B2, “Modified release dosage forms of xanthine oxidoreductase inhibitor or xanthine oxidase inhibitors” (Takeda Pharmaceuticals U.S.A., Inc., priority 2010, dated 2016)

Key:
[1] = Bioavailability of febuxostat released in various locations of the gastrointestinal tract (site of absorption study); assay type: in vivo, human; details: humans
Description: Subjects all received regimens in a crossover fashion according to a randomization schedule. Extra periods (up to 2 per subject) were added where subject dose release issues required repeating a regimen. There was a washout interval of at least 7 days between the dose in a period and the next dose in the subsequent period.
The method utilizes protein precipitation with acetonitrile of a 100-μL aliquot of plasma, with a lower limit of detection of 10.0 ng/mL.
Pharmacokinetic parameters for febuxostat were estimated using standard noncompartmental methods. Calculations were performed using the WinNonlin Pro Version 5.2 (Mountain View, Calif., USA). The descriptive statistics for pharmacokinetic parameter estimates were computed. […] The subjects who had improper capsule release were allowed to repeat up to two extra periods after their scheduled sequence had ended. For ANOVA purposes, the missing or incomplete data from the periods with improper capsule release was replaced by the data from the corresponding repeated periods using the originally planned period for that regimen.

albumin = biological target: T1, albumin (Homo sapiens, UniProt P02768); assay: Binding to albumin in the blood; assay type: in vitro ADME
T1 construct: from tissue; host or cells: blood / plasma

uric acid = assay: Pharmacodynamics in Phase 1 dose escalation study: uric acid levels; assay type: in vivo, human
Description: Samples were analyzed by high performance liquid chromatography.

[2] = Absorption of febuxostat from various regions of the gastro-intestinal tract in rats; assay type: in vivo, rat
Source text: The pharmacokinetic data obtained in the clinical trial referenced above was subsequently used to develop estimated plasma profiles for various febuxostat formulations, including extended release matrix tablets, two-pulse febuxostat formulations, and three-pulse febuxostat formulations. The estimated extended release formulation data was based on a matrix formulation incorporating one or more polymers, and the estimated two-pulse and three-pulse formulation data was based on a formulation incorporating two or more types of beads with differing release profiles. This information and methodology is discussed in Example 2. Additionally, as part of the development process for an extended release febuxostat formulation, various sites of absorption were investigated to determine the optimal physiologic sites of drug absorption for an extended release febuxostat formulation. In early pre-clinical studies, absorption of febuxostat from various regions of the gastro-intestinal tract was studied in rats. […] To guide development of a dosage form that provided the desired plasma concentration-time profile, a site of absorption study was conducted in humans.

T1 sequence (P02768 25-609): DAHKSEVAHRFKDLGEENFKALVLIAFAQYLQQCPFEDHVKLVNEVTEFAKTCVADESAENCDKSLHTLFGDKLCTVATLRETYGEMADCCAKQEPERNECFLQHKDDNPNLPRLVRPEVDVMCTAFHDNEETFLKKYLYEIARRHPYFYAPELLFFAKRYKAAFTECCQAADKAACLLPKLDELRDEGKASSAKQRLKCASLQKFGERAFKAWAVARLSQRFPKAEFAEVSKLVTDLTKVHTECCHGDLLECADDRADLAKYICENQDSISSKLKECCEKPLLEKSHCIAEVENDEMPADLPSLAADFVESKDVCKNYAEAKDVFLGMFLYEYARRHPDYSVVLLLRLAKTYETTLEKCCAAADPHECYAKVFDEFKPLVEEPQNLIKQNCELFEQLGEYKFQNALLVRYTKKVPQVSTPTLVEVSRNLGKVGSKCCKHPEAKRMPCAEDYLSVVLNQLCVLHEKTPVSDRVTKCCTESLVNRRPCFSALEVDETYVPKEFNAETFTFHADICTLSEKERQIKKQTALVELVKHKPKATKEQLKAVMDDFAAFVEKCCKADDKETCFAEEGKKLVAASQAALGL

Cc1nc(-c2ccc(OCC(C)C)c(C#N)c2)sc1C(=O)O [Febuxostat, 2-[3-cyano-4-(2-methylpropoxy)phenyl]-4-methylthiazole-5-carboxylic acid]
absorption in the colon compared to immediate release, proximal intestine and distal intestine [1]: approximately 40% | bound to albumin in the blood (albumin): ~99.3% | lowering uric acid levels (uric acid; 30 mg twice daily compared with once daily 120 mg): as effective | serum uric acid concentrations (uric acid; IR, once a day, as little as 10 mg, healthy subjects): lowers concentrations of uric acid | inhibition of uric acid levels (uric acid; in vivo febuxostat concentrations at or above 100 ng/mL (0.1 μg/mL)): ≥ 80% | absorption from the colonic region [2]: very poor
